The text below walks through data of ChEMBL document CHEMBL3991601, “The target landscape of clinical kinase drugs” (Science, 2017).

For test [1], the target named is Uncharacterized aarF domain-containing protein kinase 5 (Homo sapiens, UniProt Q3MIX3).
The target of test [2] is Choline-phosphate cytidylyltransferase A (Homo sapiens, UniProt P49585).
Test [3] addresses Cyclin-dependent kinase 17 (Homo sapiens, UniProt Q00537).
The target in another test is Ephrin type-A receptor 2 (Homo sapiens, UniProt P29317).
Test [4] has as its target T1, Receptor-type tyrosine-protein kinase FLT3 (Homo sapiens, UniProt P36888).
T1 sequence (P36888 whole entry): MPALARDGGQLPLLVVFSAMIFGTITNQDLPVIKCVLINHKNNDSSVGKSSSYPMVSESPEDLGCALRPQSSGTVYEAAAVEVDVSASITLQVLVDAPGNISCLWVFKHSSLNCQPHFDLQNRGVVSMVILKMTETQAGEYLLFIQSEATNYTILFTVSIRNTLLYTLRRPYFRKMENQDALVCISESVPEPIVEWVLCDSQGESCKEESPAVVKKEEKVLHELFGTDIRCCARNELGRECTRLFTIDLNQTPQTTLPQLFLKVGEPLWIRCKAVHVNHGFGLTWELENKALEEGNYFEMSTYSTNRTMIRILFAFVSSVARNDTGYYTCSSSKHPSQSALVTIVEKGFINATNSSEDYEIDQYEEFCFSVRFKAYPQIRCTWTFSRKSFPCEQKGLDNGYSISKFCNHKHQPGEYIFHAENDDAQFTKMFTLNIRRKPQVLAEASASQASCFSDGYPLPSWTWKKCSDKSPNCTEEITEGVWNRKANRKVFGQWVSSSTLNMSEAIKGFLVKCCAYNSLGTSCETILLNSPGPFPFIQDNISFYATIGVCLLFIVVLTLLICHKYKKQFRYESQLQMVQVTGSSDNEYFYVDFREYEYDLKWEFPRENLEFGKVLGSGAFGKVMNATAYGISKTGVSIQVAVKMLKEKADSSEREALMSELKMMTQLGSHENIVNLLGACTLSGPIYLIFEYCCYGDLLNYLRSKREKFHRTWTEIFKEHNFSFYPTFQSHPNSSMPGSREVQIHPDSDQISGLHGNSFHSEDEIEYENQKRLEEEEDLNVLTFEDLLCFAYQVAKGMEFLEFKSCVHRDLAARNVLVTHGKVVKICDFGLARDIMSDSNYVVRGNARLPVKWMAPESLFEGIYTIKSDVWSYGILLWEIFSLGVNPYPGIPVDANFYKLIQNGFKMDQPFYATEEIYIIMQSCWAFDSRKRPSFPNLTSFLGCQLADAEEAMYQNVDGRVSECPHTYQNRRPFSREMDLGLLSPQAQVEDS

The target in test [5] is Dual specificity mitogen-activated protein kinase kinase 1 (Homo sapiens, UniProt Q02750).
Test [6] has as its target Mitogen-activated protein kinase kinase kinase 1 (Homo sapiens, UniProt Q13233).
Test [7] deals with T2, Mitogen-activated protein kinase kinase kinase 3 (Homo sapiens, UniProt Q99759).
T2 sequence (Q99759 whole entry): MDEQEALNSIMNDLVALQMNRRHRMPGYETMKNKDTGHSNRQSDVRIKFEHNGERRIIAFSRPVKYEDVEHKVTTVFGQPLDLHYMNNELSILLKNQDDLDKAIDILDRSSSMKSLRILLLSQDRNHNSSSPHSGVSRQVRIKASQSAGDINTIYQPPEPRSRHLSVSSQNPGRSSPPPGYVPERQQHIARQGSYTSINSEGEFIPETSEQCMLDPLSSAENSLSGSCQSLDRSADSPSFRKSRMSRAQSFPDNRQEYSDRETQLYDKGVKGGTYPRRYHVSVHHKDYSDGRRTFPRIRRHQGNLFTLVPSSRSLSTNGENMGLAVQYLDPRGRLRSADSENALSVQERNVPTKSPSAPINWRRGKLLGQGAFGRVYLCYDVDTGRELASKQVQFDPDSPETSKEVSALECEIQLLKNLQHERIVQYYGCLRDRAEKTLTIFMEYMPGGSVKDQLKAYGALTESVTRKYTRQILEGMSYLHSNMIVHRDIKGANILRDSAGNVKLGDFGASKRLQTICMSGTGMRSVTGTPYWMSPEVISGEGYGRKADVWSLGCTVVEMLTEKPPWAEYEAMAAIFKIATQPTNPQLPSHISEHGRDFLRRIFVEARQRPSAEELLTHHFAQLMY

Test [8] deals with Hepatocyte growth factor receptor (Homo sapiens, UniProt P08581).
In test [9] the target is High affinity nerve growth factor receptor (Homo sapiens, UniProt P04629).
The target of test [10] is Serine/threonine-protein kinase pim-2 (Homo sapiens, UniProt Q9P1W9).
In test [11] the target is Protein kinase C theta type (Homo sapiens, UniProt Q04759).
Test [12] deals with Rho-associated protein kinase 1 (Homo sapiens, UniProt Q13464).
In test [13] the target is T3, Serine/threonine-protein kinase 4 (Homo sapiens, UniProt Q13043).
T3 sequence (Q13043 whole entry): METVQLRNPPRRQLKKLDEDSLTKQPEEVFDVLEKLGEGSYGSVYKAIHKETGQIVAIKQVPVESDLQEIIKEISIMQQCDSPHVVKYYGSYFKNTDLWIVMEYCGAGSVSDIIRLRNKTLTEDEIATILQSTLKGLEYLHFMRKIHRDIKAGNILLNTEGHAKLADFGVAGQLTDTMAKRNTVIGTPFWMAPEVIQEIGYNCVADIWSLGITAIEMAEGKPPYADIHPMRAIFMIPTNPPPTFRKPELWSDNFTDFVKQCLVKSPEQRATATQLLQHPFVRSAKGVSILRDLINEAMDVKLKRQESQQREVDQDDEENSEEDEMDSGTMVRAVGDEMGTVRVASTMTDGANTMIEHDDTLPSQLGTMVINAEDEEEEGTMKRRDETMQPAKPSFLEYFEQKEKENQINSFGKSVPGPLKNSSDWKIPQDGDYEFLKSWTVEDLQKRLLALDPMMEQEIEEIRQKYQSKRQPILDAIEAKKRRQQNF

Test [14] addresses Dual specificity protein kinase CLK3 (Homo sapiens, UniProt P49761). The class given is subcellular, K-562, COLO 205, SK-N-BE(2) and MV-4-11, Cell lysate. Particulars: read-out: Kd apparent.

Activity calls are given as the source filed them. Cut-off read from the data, not from the text of the source, for most assays here: actives have a measured Kd and inactives only a lower limit.
Note: in the data inactive means no Kd found up to 30 µM.

Sequence of Cyclin-dependent kinase 17 (Q00537 whole entry): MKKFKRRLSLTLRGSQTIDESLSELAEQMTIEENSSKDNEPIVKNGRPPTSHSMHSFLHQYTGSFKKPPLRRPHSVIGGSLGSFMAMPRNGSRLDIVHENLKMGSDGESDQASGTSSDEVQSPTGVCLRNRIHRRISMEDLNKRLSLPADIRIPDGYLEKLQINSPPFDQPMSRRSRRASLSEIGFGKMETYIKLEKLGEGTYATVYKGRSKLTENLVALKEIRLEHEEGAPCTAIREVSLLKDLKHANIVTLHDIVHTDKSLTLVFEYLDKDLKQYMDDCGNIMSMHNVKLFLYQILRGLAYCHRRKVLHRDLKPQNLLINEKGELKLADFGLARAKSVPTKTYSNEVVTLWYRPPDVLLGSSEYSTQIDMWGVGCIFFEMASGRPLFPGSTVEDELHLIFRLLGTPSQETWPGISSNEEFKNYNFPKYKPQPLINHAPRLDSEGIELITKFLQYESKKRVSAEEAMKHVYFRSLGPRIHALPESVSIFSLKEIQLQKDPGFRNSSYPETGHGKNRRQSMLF
Sequence of Mitogen-activated protein kinase kinase kinase 1 (Q13233 whole entry): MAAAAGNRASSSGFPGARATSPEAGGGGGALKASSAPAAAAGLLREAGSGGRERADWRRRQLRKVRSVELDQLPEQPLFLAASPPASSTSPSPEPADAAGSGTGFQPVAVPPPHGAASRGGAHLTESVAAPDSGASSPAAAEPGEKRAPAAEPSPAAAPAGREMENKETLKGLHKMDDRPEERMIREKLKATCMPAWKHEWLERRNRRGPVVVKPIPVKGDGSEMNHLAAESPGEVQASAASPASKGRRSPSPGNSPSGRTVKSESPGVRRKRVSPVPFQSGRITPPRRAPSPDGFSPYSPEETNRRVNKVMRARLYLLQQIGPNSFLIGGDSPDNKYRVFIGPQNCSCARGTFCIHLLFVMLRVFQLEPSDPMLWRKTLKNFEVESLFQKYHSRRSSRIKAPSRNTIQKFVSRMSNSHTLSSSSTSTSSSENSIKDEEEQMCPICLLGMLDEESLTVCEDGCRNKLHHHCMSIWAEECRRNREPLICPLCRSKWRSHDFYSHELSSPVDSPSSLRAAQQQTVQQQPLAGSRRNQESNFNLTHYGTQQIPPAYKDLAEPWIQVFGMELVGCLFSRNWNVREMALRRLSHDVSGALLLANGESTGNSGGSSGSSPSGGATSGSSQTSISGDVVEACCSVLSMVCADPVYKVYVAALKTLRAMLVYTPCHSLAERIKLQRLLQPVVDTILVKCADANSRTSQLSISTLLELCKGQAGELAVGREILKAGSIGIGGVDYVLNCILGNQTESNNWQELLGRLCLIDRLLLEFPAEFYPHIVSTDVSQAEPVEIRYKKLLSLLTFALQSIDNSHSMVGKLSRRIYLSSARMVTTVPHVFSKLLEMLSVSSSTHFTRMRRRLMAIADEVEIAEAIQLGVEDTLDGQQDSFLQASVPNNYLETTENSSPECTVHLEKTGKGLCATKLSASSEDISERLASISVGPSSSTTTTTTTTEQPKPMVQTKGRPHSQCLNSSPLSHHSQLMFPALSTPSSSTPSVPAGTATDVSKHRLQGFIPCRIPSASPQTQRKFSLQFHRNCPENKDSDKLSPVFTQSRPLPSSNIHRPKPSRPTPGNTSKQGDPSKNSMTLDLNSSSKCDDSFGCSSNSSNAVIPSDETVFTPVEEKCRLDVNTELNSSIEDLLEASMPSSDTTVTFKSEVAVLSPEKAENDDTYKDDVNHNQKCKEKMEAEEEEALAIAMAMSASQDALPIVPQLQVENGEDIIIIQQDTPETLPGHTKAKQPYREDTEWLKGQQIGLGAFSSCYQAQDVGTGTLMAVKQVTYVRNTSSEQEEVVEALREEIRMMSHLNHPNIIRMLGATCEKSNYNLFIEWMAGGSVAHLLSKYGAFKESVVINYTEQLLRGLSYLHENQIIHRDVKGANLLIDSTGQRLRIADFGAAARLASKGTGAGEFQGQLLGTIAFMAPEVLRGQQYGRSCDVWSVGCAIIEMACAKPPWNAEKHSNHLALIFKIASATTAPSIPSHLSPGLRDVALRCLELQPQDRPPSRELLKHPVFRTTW
Sequence of Dual specificity mitogen-activated protein kinase kinase 1 (Q02750 whole entry): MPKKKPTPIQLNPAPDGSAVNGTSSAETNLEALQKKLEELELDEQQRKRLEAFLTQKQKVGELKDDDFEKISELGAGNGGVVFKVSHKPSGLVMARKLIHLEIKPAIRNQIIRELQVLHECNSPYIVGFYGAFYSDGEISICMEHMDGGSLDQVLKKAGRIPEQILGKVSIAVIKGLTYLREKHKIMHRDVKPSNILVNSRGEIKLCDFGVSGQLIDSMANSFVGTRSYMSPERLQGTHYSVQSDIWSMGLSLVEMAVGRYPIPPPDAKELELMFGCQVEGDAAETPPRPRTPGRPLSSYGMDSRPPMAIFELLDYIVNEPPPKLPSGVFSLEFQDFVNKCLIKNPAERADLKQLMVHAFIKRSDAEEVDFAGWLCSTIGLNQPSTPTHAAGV
Sequence of Choline-phosphate cytidylyltransferase A (P49585 whole entry): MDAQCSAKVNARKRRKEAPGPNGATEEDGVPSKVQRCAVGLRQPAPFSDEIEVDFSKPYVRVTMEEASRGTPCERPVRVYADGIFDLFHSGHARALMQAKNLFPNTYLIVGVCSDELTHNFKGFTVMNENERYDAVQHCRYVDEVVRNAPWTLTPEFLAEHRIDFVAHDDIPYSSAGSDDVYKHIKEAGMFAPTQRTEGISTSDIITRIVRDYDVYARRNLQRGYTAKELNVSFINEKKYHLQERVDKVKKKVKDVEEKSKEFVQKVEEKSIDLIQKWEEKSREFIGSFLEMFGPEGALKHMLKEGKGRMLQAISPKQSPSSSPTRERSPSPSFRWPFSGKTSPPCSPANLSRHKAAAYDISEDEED
Sequence of Ephrin type-A receptor 2 (P29317 whole entry): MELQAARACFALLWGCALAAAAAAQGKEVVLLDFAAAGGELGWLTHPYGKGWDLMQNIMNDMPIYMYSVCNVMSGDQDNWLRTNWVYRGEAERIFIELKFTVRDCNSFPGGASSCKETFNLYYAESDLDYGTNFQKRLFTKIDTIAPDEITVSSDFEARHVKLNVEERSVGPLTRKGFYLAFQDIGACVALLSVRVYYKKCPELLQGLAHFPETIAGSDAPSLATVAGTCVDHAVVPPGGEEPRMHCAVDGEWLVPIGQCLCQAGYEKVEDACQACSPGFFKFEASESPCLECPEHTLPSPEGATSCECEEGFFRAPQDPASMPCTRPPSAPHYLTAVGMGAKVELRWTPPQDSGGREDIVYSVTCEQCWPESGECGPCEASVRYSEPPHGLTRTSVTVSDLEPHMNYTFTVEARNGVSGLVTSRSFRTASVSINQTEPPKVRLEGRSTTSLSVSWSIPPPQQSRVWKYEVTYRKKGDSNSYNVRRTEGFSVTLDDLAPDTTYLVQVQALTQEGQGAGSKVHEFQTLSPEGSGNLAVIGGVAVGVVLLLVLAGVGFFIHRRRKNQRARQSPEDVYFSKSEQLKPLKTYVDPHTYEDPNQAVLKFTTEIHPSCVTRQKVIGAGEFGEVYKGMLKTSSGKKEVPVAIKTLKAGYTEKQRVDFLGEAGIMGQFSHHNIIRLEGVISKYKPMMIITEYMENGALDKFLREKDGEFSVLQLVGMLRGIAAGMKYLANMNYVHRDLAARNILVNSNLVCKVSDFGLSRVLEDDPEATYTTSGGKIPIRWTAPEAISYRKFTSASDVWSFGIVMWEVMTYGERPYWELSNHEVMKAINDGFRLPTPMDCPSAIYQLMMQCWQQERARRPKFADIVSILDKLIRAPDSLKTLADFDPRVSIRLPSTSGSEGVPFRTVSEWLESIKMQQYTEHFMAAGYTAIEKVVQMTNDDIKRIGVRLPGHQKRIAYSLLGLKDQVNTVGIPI
Sequence of High affinity nerve growth factor receptor (P04629 whole entry): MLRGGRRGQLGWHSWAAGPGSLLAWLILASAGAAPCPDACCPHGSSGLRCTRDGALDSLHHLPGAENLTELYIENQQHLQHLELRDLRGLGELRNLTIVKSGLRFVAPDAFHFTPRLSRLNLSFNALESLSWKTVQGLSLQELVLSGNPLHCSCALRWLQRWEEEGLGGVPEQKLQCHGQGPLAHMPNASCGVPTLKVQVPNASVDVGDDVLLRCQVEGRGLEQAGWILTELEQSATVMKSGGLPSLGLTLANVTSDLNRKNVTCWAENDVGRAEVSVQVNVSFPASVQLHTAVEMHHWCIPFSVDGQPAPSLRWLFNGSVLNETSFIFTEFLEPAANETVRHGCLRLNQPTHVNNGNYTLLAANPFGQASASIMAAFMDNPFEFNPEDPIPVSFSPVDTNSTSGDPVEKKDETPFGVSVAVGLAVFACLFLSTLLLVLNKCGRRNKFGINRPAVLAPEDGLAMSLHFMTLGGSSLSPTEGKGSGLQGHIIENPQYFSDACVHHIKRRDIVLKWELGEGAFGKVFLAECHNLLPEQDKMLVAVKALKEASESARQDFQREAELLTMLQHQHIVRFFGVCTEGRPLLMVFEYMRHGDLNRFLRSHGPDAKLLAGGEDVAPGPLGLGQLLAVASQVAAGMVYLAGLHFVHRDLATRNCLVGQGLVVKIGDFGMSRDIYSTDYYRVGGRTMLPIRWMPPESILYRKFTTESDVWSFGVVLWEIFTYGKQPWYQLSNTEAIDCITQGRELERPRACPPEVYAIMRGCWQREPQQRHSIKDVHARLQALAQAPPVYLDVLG
Sequence of Serine/threonine-protein kinase pim-2 (Q9P1W9 whole entry): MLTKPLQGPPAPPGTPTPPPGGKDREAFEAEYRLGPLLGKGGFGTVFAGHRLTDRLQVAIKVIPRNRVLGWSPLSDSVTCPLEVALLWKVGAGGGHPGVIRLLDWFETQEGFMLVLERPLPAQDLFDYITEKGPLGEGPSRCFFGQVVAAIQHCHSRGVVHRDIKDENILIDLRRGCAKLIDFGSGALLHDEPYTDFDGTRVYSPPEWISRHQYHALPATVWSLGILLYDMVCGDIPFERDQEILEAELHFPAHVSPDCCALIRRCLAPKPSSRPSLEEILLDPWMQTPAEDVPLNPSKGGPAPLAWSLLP

Consider `CC1(C)CNc2cc(NC(=O)c3cccnc3NCc3ccncc3)ccc21` [MOTESANIB], for which the Kd in test [1] and in test [2] was > 30 µM (inactive) throughout.
On to `COc1ccc(-c2ccc3ncc4c(c3c2)n(-c2ccc(N3CCNCC3)c(C(F)(F)F)c2)c(=O)n4C)cn1` [BGT-226 FREE BASE], for which the Kd (in [1]; in [3]; at Ephrin type-A receptor 2; in [4]; in [5]; in test [6]) was > 30 µM (inactive) each time. In addition, the Kd in test [7], in [8], in test [9], in [2], in [10] and in [11] was > 30 µM (inactive) each time. For the same compound, the Kd in test [12] and in test [13] was > 30 µM (inactive) in each case.
On to `c1cc(OCCN2CCCCC2)cc(-c2n[nH]c3ccc(-c4nc[nH]n4)cc23)c1` [CC-401], for which the Kd (in test [1]; in test [3]; at Ephrin type-A receptor 2; in test [4]; in test [5]; in [6]) was > 30 µM (inactive) throughout. Further, the Kd in test [7], in [8], in test [9], in test [2], in test [10] and in test [11] was > 30 µM (inactive) each time. Also, the Kd in test [13] is > 30 µM (inactive).
Take `CN(C)C/C=C/C(=O)Nc1cc2c(Nc3ccc(F)c(Cl)c3)ncnc2cc1O[C@H]1CCOC1` [AFATINIB]: the Kd in [1] and in test [2] was > 30 µM (inactive) throughout.
Regarding `Cn1cnc2c(F)c(Nc3ccc(Br)cc3Cl)c(C(=O)NOCCO)cc21` [SELUMETINIB], in test [2], the Kd was > 30 µM (inactive).
Consider `S=C(NCc1ccc2c(c1)OCO2)N1CCN(c2ncnc3c2oc2ccccc23)CC1` [AMUVATINIB], for which the Kd (in test [3]; on Ephrin type-A receptor 2; in [4]; in [5]; in test [6]; in [7]) was > 30 µM (inactive) in each case. Also, the Kd in [8], in test [9], in test [2], in test [11], in test [12] and in test [13] was > 30 µM (inactive) in each case.
For the compound `Cn1c(=O)n(-c2ccc(C(C)(C)C#N)cc2)c2c3cc(-c4cnc5ccccc5c4)ccc3ncc21` [DACTOLISIB], the Kd (in test [1]; in test [3]; on Ephrin type-A receptor 2; in [6]; in test [7]; in test [2]) was > 30 µM (inactive) throughout. The Kd in [13] was > 30 µM (inactive).
As for `CC(C)CC(=O)Nc1[nH]nc2c1CN(C(=O)C1CCN(C)CC1)C2(C)C` [PHA-793887], the Kd (in [1]; at Ephrin type-A receptor 2; in [4]; in [5]; in [6]; in test [7]) was > 30 µM (inactive) each time. For the same compound, the Kd in [9] is > 30 µM (inactive); in test [2] it was > 30 µM (inactive); in test [10], > 30 µM (inactive); in test [11] it was 2.34 µM (active); in [13], > 30 µM (inactive).
Turning to `COc1cccc2cc(-c3nc([C@H]4CC[C@H](C(=O)O)CC4)n4ncnc(N)c34)[nH]c12` [OSI-027], the Kd (at Ephrin type-A receptor 2; in test [4]; in test [5]; in [6]; in test [7]; in test [9]) was > 30 µM (inactive) throughout. The Kd in test [2], in test [10], in [11], in test [12] and in test [13] was > 30 µM (inactive) each time.
Take `COc1cc2c(Oc3ccc4[nH]c(C)cc4c3F)ncnc2cc1OCCCN1CCCC1` [CEDIRANIB]: the Kd in test [1] and in test [2] was > 30 µM (inactive) throughout.
Take `C[C@]1(O)C[C@@H](c2nc(-c3ccc4ccc(-c5ccccc5)nc4c3)c3c(N)nccn32)C1` [LINSITINIB]: the Kd in [14], in test [3], in test [6], in test [7], in test [2] and in test [11] was > 30 µM (inactive) throughout. In addition, the Kd in test [13] was > 30 µM (inactive).
Take `COc1cc2ncnc(Nc3ccc(F)c(Cl)c3)c2cc1NC(=O)/C=C/CN1CCCCC1` [DACOMITINIB ANHYDROUS]: the Kd (in test [14]; in test [1]; in [3]; at Ephrin type-A receptor 2; in test [4]; in [5]) was > 30 µM (inactive) in each case. Also, the Kd in [6], in [7], in test [8], in test [9], in test [10] and in test [11] was > 30 µM (inactive) in each case. Also, the Kd in [12] and in test [13] was > 30 µM (inactive) in each case.
On to `NC[C@@](O)(c1ccc(Cl)cc1)c1ccc(-c2cn[nH]c2)cc1` [AT-13148], for which the Kd (at Ephrin type-A receptor 2; in test [4]; in test [5]; in test [6]; in test [7]; in test [8]) was > 30 µM (inactive) in each case. Further, the Kd in [2] is > 30 µM (inactive); in [11], > 30 µM (inactive); in test [12], 0.027 µM (active); in [13], > 30 µM (inactive).
